According to patent US20230338454A1, “FORSYTHIA SUSPENSA COMPONENT AND OPTIONAL PANAX GINSENG COMPONENT AND THE APPLICATION” (priority 2020, published 2023):
Where two headings read alike, the source gives them in different places.

What was measured:
parainfluenza virus = format: in vivo, Kunming mice
[1] = tested on: NK cells (YAC-1 target cells); test: Determination of NK cell viability; format: in vivo, Kunming mice; settings: 144 mg/kg; gavage once daily for 30 days; mice
Excerpt: One hundred and fifty-two healthy male mice were subjected to acclimation for 4 days before they were randomly divided into 19 groups: the negative control group, positive control group, forsythin group, 20(R)-ginsenoside Rg3 group, high, middle and low dose groups of panax ginseng-forsythia suspensa composition. […] The drugs were given by gavage, once daily for 30 days, and the negative control group was given the same volume of water. One hour after the last dose, the spleens of animals of each group were aseptically excised to prepare splenocyte suspension. […] Then, the concentration of splenocyte suspension was adjusted to 2×10^7 cells/mL. and the splenocyte suspension was added into a 96-well plate for culturing. […] A triplicate set of tubes was prepared for each of the above items. The 96-well plate was incubated at 37° C. in a 5% CO2 incubator for 4 h. After adding LDH matrix solution and 1 moL/L HCl, the solutions in each parallel well were combined, and the absorbance (ABS) was measured at 490 nm. The NK cell viability was calculated: NK cell viability (%) = (ABS reaction well -ABS natural release well)/(ABS maximum release well -ABS natural release well).

[2] = tested on: carrageenan-induced paw swelling; test: Carrageenan-induced paw swelling in rats; format: in vivo, Wistar rats; settings: sublingual intravenous injection; for Swelling rate (%) 15 min: 15 min after inflammation induction; for Swelling rate (%) 30 min: 30 min after inflammation induction; for Swelling rate (%) 60 min: 60 min after inflammation induction; for Swelling rate (%) 120 min: 120 min after inflammation induction; for Swelling rate (%) 180 min: 180 min after inflammation induction; for Swelling rate (%) 240 min: 240 min after inflammation induction; for Swelling rate (%) 300 min: 300 min after inflammation induction; for Swelling rate (%) 360 min: 360 min after inflammation induction
Experimental: Each group was administered by sublingual intravenous injection. Before the study, the normal volume of the right hind limb was measured by the capillary magnification method. To avoid errors, the measurement position should be fixed and performed by one person before and after administration. The average of the two measurements was taken as the normal volume of the right hind limb of the rats prior to administration. […] The inter-group t-test was performed by the difference percentage (swelling rate) of the plantar volume before and after the inflammation induction, and the differences among the groups were compared.

[3] = tested on: Coxsackievirus A16 (CoxA16); test: Effect of drugs on viral cytopathic effect, effective antiviral rate (ER%); format: cell-based; settings: Vero cells, 100TCID50, drug at maximum non-toxic concentration, 72 h, MTT
HCMV AD169 strain = test: Inhibitory effect on HCMV in vitro (MEC, therapeutic index); format: cell-based, human cytomegalovirus; settings: HCMV AD169, 100 times TCD50, 10 days of culture
Experimental: Human embryonic lung fibroblast cell strain (purchased from Sino Best Biological Technology Co., Ltd.). The cells were cultured and subcultured according to the conventional method.
HCMV AD169 strain was purchased from American Type Culture Collection (ATCC).
Cells were inoculated in a 96-well plate, allowed to grow into monolayers, and inoculated with a virus challenge of 100 times TCD50. Starting from TD0, each drug was diluted stepwise according to 10-fold gradient to prepare 5 concentrations, with 4 wells set for each concentration. In addition, 4 wells of normal cell control and 4 wells of virus control were set.

[4] = tested on: Human embryonic lung fibroblast cell strain; test: Drug toxicity testing (MTT and cytopathic effect methods), maximum non-toxic concentration TD0; settings: human embryonic lung fibroblasts
[5] = […], 13.0 mg/kg/day by gavage, 5 days

Compound	NK cell viability (%) [1]	Swelling rate (%) 15 min ([2]; 10.0 mg/kg)	Swelling rate (%) 30 min ([2]; 10.0 mg/kg)	Swelling rate (%) 60 min ([2]; 10.0 mg/kg)	Swelling rate (%) 120 min ([2]; 10.0 mg/kg)	Swelling rate (%) 180 min ([2]; 10.0 mg/kg)	Swelling rate (%) 240 min ([2]; 10.0 mg/kg)	Swelling rate (%) 300 min ([2]; 10.0 mg/kg)	Swelling rate (%) 360 min ([2]; 10.0 mg/kg)	Effective Antiviral Rates (ER%) CoxA16 [3]	also measured
CC(C)=CCC[C@](C)(O)[C@H]1CC[C@]2(C)[C@@H]1[C@H](O)C[C@@H]1[C@@]3(C)CC[C@H](O[C@@H]4O[C@H](CO)[C@@H](O)[C@H](O)[C@H]4O[C@@H]4O[C@H](CO)[C@@H](O)[C@H](O)[C@H]4O)C(C)(C)[C@@H]3CC[C@]12C [20(R)-Ginsenoside Rg3, 20(R)-ginsenoside Rg3]	37.34±7.21%	14.9±6.13%	21.9±9.72%	27.1±13.5%	30.7±10.2^∗ %	33.8±12.1^∗ %	31.0±11.3^∗ %	35.8±13.5^∗ %	36.4±10.2%	52.33%	Hemagglutinin titer (InX) (parainfluenza virus; [5]): 23.79±1.072; Inhibitory rate (%) of hemagglutination titer (parainfluenza virus; [5]): 28.15%; Swelling rate (%) 15 min ([2]; 2.5 mg/kg): 14.8±8.74%; Swelling rate (%) 30 min ([2]; 2.5 mg/kg): 18.9±12.1%; Swelling rate (%) 60 min ([2]; 2.5 mg/kg): 23.5±13.3^∗▲▲ %; Swelling rate (%) 120 min ([2]; 2.5 mg/kg): 28.9±14.2^∗∗Δ▲ %; Swelling rate (%) 180 min ([2]; 2.5 mg/kg): 31.8±14.8^∗∗Δ▲ %; Swelling rate (%) 240 min ([2]; 2.5 mg/kg): 33.1±18.3^∗∗Δ▲ %; Swelling rate (%) 300 min ([2]; 2.5 mg/kg): 34.9±19.6^∗∗Δ▲ %; Swelling rate (%) 360 min ([2]; 2.5 mg/kg): 37.8±18.3^∗▲▲ %
COc1ccc([C@H]2OCC3C2CO[C@H]3c2ccc(O[C@@H]3OC(CO)[C@@H](O)[C@H](O)C3O)c(OC)c2)cc1OC (stereo partly shown) [Forsythin]	41.86±7.24%	12.9±8.41%	19.9±9.55%	21.8±11.8 %	28.9±14.0^∗ %	30.8±15.4^∗ %	29.9±11.1^∗ %	33.5±10.0^∗ %	32.2±11.9^∗ %	75.08^∗∗ %	Minimum effective concentration MEC (HCMV AD169 strain): 4 mg/L; Hemagglutinin titer (InX) (parainfluenza virus; mouse, in vivo, 13 mg/kg/day): 23.17±1.059; Inhibitory rate (%) of hemagglutination titer (parainfluenza virus; mouse, in vivo, 13 mg/kg/day): 30.01%; Maximum non-toxic concentration TD0 [4]: 40 mg/L
